Read-outs that look alike come from different tables or passages of the source. Marks after values point to notes of the source that are not given here.
Experiments:
MES-SA/Dx5 cells = assay: MTT viability assay, MES-SA/Dx5; format: cell-based, human; conditions: for IC50: Homo sapiens, MES-SA/Dx5, Table S1, calculated as ligand equivalents, read-out: IC50 Dx5; for IC50 / SR: absence of TQ; for Effect of co-administration of CuCl2 on toxicity: MDR MES-SA/Dx5, increasing concentrations of CuCl2, MTT 72 h (Figure 2I-L); for Effect of co-incubation with iron(III) on cytotoxicity: MES-SA/Dx5, increasing concentrations of FeCl3, MTT 72 h (Figure 2A-D); for SR: Table S1, IC50 Pgp negative divided by Pgp positive cells; for SR_TQ: Table S1, presence of 1 µM TQ
Procedure, shortened: (§1)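 Cells seeded at 5000/well, attached overnight, then exposed to test compounds for 72 h. MTT (0.083 mg/mL) added for 1 h at 37 °C, formazan dissolved in DMSO and read at 540 nm; background-corrected, normalized to untreated cells, sigmoidal dose-response fit.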

[1] = set-up: method as in PMID 21275772; conditions: T = 25 °C, I = 0.2 M (KCl), cited from earlier work; for pKa (additional): group named in the cell
MES-SA cells = assay: MTT viability assay, MES-SA; format: cell-based, human; conditions: for IC50: Homo sapiens, MES-SA; for Effect of co-administration of CuCl2 on toxicity: parental MES-SA, increasing concentrations of CuCl2, MTT 72 h (Figure 2I-L)
Procedure, shortened: as §1

MDCK cells = assay: MTT viability assay, MDCK; format: cell-based, canine; conditions: Canis lupus familiaris, 72 h, MTT 72 h
Source text: (§2) MDCK II canine kidney cells, A431 epidermoid carcinoma cells, the human uterine sarcoma cell lines MES-SA and the doxorubicin selected MES-SA-Dx5 were obtained from ATCC (MDCK II: No. CRL-2936™, A431: No. CRL-1555™, MES-SA: No. CRL-1976™, MES-SA/Dx5: No. CRL-1977™). ABCB1 was expressed in A431 and MES-SA cells using lentiviral transduction. The human cervix carcinoma cell line KB-3-1 and the vinblastine selected KB-v1were kind gifts from Dr. Michael M. Gottesman, National Institutes of Health. The phenotype of the resistant cells was verified using cytotoxicity assays. MDCK-B1 and MDCK-MM were established by the Sleeping Beauty transposon-based gene delivery system. OVCAR-8 and NCI-ADRres cells (obtained from the Division of Cancer Treatment and Diagnosis (DCTD) Tumor Repository (National Cancer Institute, Frederick, MD, USA)) were cultivated in RPMI-1640 (Sigma Aldrich, Budapest, Hungary), and other cell lines were cultivated in Dulbecco’s Modified Eagle Medium (DMEM, Sigma Aldrich, Budapest, Hungary), supplemented with 10% fetal bovine serum, 5 mM glutamine, and 50 unit/mL penicillin and streptomycin (Life Technologies, Carlsbad, CA, USA). All cell lines were cultivated at 37 °C, 5% CO2.
(§3) MTT viability assays were performed as described earlier with minor modifications. Briefly, cells were seeded into 96-well tissue culture plates (Sarstedt, Newton, NC, USA/Orange, Braine-l’Alleud, Belgium) at a density of 5000 cells/well and allowed to attach overnight. Test compounds were added to achieve the required final concentration in a final volume of 100 µL per well. After an incubation period of 72 h, the supernatant was removed and fresh medium containing the MTT reagent (0.083 mg/mL) was added. Incubation with MTT at 37 °C was terminated after 1 h by removing the supernatant and lysing the cells with 100 µL DMSO per well. Viability of the cells was measured spectrophotometrically based on the absorbance values at 540 nm using either a Perkin Elmer Victor X3 or an EnSpire microplate reader. Data were background corrected by subtraction of the signal obtained from unstained cell lysates and normalized to untreated cells. Curves were fitted by Prism software (GraphPad Software Inc., San Diego, CA, USA) using the sigmoidal dose-response model (comparing variable and fixed slopes). […] Significance was calculated using unpaired t-tests; results are given as *: p ≤ 0.05, **: p ≤ 0.01, ***: p ≤ 0.001, ****: p ≤ 0.0001.

MDCK-MM cells = assay: MTT viability assay, MDCK-MM (non-functional Pgp); format: cell-based, canine; conditions: for IC50: Canis lupus familiaris, 72 h, MTT 72 h; for SR MDCK-MM: IC50 MDCK vs. MDCK-MM
Source text: as §2, §3

[2] = tested on: MES-SA, MES-SA/Dx5 and MES-SA/B1 cells; assay: TXRF intracellular copper levels; format: cell-based, human
Protocol: Cells were seeded to 6-well plates in a density of 1.5 Mio cells/well and allowed to attach overnight. Following a washing step with phosphate buffered saline (PBS), cells were incubated in serum free DMEM. For the iron-level measurements, cells were preloaded with 25 µM holo-transferrin for 4 h and, after a washing step with serum free DMEM, cells were incubated with 5 µM of each ligand for 8 h. For the detection of copper levels, cells were treated with 1 µM of the ligands in the presence of 5 µM CuCl2 for 4 h. Following incubation, cells were harvested upon trypsination, washed twice with PBS, counted and the resulting pellets were digested in 20 μL of 30% H2O2, 80 μL of 65% HNO3. 10 μL of 15 µg/mL Ga(NO3)3 (in nitric acid) was added as an internal standard upon digestion for 24 h at room temperature. From the resulting solutions, 2 μL were pipetted on the quartz reflectors used for total-reflection X-ray fluorescence (TXRF) analysis. For the determination of the intracellular Cu content, the TXRF method was used as previously reported. Briefly, all determinations were performed on an Atomika 8030C TXRF spectrometer (Atomika Instruments GmbH, Oberschleissheim, Germany). The stock solution of 1000 mg/L Ga was purchased from Merck (Darmstadt, Germany). The Kα line used for determination of Fe and Cu were at 6.403 and 8.047 keV. […] Significance was calculated using unpaired t-tests; results are given as *: p ≤ 0.05, **: p ≤ 0.01, ***: p ≤ 0.001, ****: p ≤ 0.0001.
Figure 4 Effect of the compounds on intracellular metal levels. (A) Iron levels of MES-SA (open columns) and MES-SA/B1 cells in absence (dark red squared columns) and presence of Pgp inhibitor Tariquidar (bright red squared columns). Cells were loaded with 25 µM holo-transferrin (4 h), followed by an incubation (8 h) without (ctr) or with 5 µM of ligands Q-1, Q-2, Q-3, and Q-4. […] (B) Cellular copper levels measured following a 4 h co-administration of compounds Q-1, Q-2, Q-3, and Q-4 (1 µM) and CuCl2 (5 µM) in MES-SA (open columns), MES-SA/Dx5 (filled columns) and MES-SA-B1 (squared columns) cells. Significance is given as *: p ≤ 0.05, **: p ≤ 0.01, ***: p ≤ 0.001.

MES-SA/B1 cells = assay: MTT viability assay, MES-SA/B1; format: cell-based, human; conditions: for IC50: Homo sapiens, MES-SA, 72 h, MTT 72 h
Source text: as §2, §3

[3] = IC50 MES-SA vs. MES-SA/Dx5, absence of Tariquidar
[4] = IC50 MES-SA vs. MES-SA/Dx5, presence of 1 µM Tariquidar (brackets)
[5] = Table 2, value in brackets (Tariquidar as in Table 1)
[6] = Table 2, value outside brackets
[7] = MTT 72 h, absence of Tariquidar, read-out: IC50 MES-SA
[8] = Table 2, value outside brackets, read-out: MES-SA (toxicity, Table 2)
[9] = presence of 1 µM Tariquidar (values in brackets)
[10] = presence of 1 µM Tariquidar (brackets)
[11] = IC50 MES-SA vs. MES-SA/B1, absence of Tariquidar
[12] = IC50 MES-SA vs. MES-SA/B1, presence of 1 µM Tariquidar (brackets)

Row | SMILES | IC50 (MES-SA/Dx5 cells) | SR MES-SA/Dx5 (MES-SA/Dx5 cells; [3]) | SR MES-SA/Dx5 (MES-SA/Dx5 cells; [4]) | Effect of co-administration of CuCl2 on toxicity (MES-SA/Dx5 cells) | Effect of co-incubation with iron(III) on cytotoxicity (MES-SA/Dx5 cells) | SR MES-SA/Dx5 (Table 2) (MES-SA/Dx5 cells; [5]) | SR MES-SA/Dx5 (Table 2) (MES-SA/Dx5 cells; [6]) | SR (MES-SA/Dx5 cells) | SR_TQ (MES-SA/Dx5 cells) | pKa (NquinoliniumH+) [1] | pKa (OH) [1] | pKa (additional) [1] | IC50 (MES-SA cells; [7]) | IC50 (MES-SA cells; [8]) | Effect of co-administration of CuCl2 on toxicity (MES-SA cells) | IC50 (MDCK cells; absence of Tariquidar) | IC50 (MDCK cells; [9]) | IC50 (MDCK-MM cells; absence of Tariquidar) | IC50 (MDCK-MM cells; [9]) | SR MDCK-MM (MDCK-MM cells; absence of Tariquidar) | also measured
1 | Oc1c(CN2CCCCC2)ccc2cccnc12 [Compound Q-3, 7-(piperidin-1-ylmethyl)quinolin-8-ol] | 0.86 ± 0.26 µM | 4.75 | 0.95 | not further sensitized | selectively protected MES-SA/Dx5 cells | 0.95 | 4.75 | 4.75 | 0.95 | 2.69 ^a | 6.99 ^a | >11.5 ^a | 4.11 ± 1.2 µM | 4.11 ± 1.2 µM | selective increase in sensitivity | 7.61 ± 3.06 µM | 10.2 µM | 6.67 ± 2 µM | 8.45 µM | 1.14 | Selective toxicity in the presence of 50 µM copper(II) (MES-SA/Dx5 cells; MES-SA vs. MES-SA/Dx5, 50 µM copper(II)): completely abrogated; MDR-selective toxicity with excess iron ions (MES-SA/Dx5 cells; MES-SA vs. MES-SA/Dx5, co-administered FeCl3): significantly reduced; SR MDCK-MM (MDCK-MM cells; [10]): 1.20; Increase in copper uptake ([2]; 1 µM ligand with 5 µM CuCl2, 4 h): 10 fold; IC50 (MES-SA/B1 cells; absence of Tariquidar): 0.83 ± 0.02 µM; IC50 (MES-SA/B1 cells; [9]): 1.5 µM; SR MES-SA/B1 (MES-SA/B1 cells; [11]): 4.95; SR MES-SA/B1 (MES-SA/B1 cells; [12]): 1.99
2 | Oc1c(CN2CCOCC2)ccc2cccnc12 [Compound Q-2, 7-(morpho-lino-methyl)quinolin-8-ol] | 3.27 ± 0.39 µM | 2.13 | 0.85 | increased the toxicity | selectively protected MES-SA/Dx5 cells | 0.85 | 2.13 | 2.13 | 0.85 | 2.59 ^a | 10.37 ^a | 6.25 ^a (NmorpholiniumH^+) | 6.97 ± 1.75 µM | 6.97 ± 1.75 µM | increased the toxicity | 9.15 ± 3.51 µM | 11.1 µM | 9.74 ± 4.04 µM | 9.01 µM | 0.82 | SR MDCK-MM (MDCK-MM cells; [10]): 1.23; Intracellular copper levels ([2]; 1 µM ligand with 5 µM CuCl2, 4 h (Figure 4B)): significantly increased copper levels; IC50 (MES-SA/B1 cells; absence of Tariquidar): 3.12 ± 0.28 µM; IC50 (MES-SA/B1 cells; [9]): 3.6 µM; SR MES-SA/B1 (MES-SA/B1 cells; [11]): 2.23; SR MES-SA/B1 (MES-SA/B1 cells; [12]): 1.29
